Reference: patent US20230364118A1, “RIBITOL TREATMENT” (priority 2020, published 2023)
Entries after “also recorded” stand apart in the source; their conditions may differ. Like-named read-outs stand apart in the source and are kept apart here.

Assays:
[1] = 28-day repeat-dose oral toxicokinetics; type: in vivo, Bama minipig; conditions: male, Bama, minipig, plasma, po, 2 g/kg/day, 1.0 g/kg/dose BID (2.0 g/kg/day, NOAEL), Day 28, Male
Protocol: Toxicokinetics of ribitol was evaluated as part of the 28-day toxicology study in male and female Bama minipig. […] Animals in control group were dosed for 28 days twice daily with the vehicle only (Purified Water). On Days 1 and 28, blood samples were collected at 0 (pre first dose), 0.5, 1, 2, 4, 6 (pre-second dose), 6.5, 7, 8, 10, 12, and 24 hours from all available animals.

[2] = Single oral dose PK; type: in vivo; conditions: Bama, minipig, plasma
Protocol: The PK of ribitol was studied in 3 male and 3 female Bama minipigs following escalating PO dose levels using the same animals with a 48 hour washout period at 0.3 g/kg (Day 1) (FIG. 11A), 1.0 g/kg (Day 3) (FIG. 11B) and 0.3 g/kg TID (Day 16) (FIG. 11C). On Days 1 and 3, blood samples were collected at 0, 0.5, 1, 2, 4, 8, 12, and 24 hours post dose from all animals. On Day 16, blood samples were collected from all animals at 0, 0.5, 1, 2, 4, 6 (pre-second dose), 6.5, 7, 8, 10, 12 (pre-third dose), 12.5, 13, 14, 16, and 24 hours post dose.

[3] = target: hERG potassium channels (Homo sapiens, UniProt Q12809); experiment: cell-based
Protocol: (§1) Therefore, the concentrations chosen for the definitive hERG assay were 0.1, 0.3, 1, and 3 mM, the detected concentrations of postperfusion solution were 0.101, 0.293, 0.999, and 2.90 mM, respectively.

[4] = test system: matriglycan expression; experiment: Matriglycan expression in wild type mice; type: in vivo, mouse; conditions: one month, 5% ribitol in drinking water; vs vehicle
Protocol: Wild type mice were dosed with ribitol to assess matriglycan expression in normal mice. The mice were treated for one month with 5% ribitol in drinking water ad libitum. Muscle samples were evaluated for matriglycan expression at the end of dosing via Western Blot analysis (FIG. 9).

[5] = target: hERG (Homo sapiens, UniProt Q12809); experiment: in vitro
Protocol: as §1

[6] = Single intravenous dose PK; type: in vivo, CD-1 mouse; conditions: for CLs: CD-1 mice; for clearance: read-out: Systemic clearance (CLs)
Protocol: The PK of ribitol was studied in male and female CD-1 mice following three IV doses at 10, 30, and 100 mg/kg (n=3/dose/sex). Blood samples were collected serially up to 24 hours post dose.

[7] = test system: HPBLs; experiment: In vitro micronucleus assay; type: cell-based, human
Protocol: In this GLP-compliant study, ribitol was tested to evaluate the potential to induce micronuclei in HPBLs in both the absence and presence of S9. HPBL cells were treated for 4 hours in the absence and presence of S9, and for 24 hours in the absence of S9. Purified water was used as the vehicle. In the preliminary toxicity assay, the doses tested ranged from 0.0152 to 152 μg/mL (1 mM), which was the limit dose for this assay.

Sequence of hERG (Q12809 whole entry): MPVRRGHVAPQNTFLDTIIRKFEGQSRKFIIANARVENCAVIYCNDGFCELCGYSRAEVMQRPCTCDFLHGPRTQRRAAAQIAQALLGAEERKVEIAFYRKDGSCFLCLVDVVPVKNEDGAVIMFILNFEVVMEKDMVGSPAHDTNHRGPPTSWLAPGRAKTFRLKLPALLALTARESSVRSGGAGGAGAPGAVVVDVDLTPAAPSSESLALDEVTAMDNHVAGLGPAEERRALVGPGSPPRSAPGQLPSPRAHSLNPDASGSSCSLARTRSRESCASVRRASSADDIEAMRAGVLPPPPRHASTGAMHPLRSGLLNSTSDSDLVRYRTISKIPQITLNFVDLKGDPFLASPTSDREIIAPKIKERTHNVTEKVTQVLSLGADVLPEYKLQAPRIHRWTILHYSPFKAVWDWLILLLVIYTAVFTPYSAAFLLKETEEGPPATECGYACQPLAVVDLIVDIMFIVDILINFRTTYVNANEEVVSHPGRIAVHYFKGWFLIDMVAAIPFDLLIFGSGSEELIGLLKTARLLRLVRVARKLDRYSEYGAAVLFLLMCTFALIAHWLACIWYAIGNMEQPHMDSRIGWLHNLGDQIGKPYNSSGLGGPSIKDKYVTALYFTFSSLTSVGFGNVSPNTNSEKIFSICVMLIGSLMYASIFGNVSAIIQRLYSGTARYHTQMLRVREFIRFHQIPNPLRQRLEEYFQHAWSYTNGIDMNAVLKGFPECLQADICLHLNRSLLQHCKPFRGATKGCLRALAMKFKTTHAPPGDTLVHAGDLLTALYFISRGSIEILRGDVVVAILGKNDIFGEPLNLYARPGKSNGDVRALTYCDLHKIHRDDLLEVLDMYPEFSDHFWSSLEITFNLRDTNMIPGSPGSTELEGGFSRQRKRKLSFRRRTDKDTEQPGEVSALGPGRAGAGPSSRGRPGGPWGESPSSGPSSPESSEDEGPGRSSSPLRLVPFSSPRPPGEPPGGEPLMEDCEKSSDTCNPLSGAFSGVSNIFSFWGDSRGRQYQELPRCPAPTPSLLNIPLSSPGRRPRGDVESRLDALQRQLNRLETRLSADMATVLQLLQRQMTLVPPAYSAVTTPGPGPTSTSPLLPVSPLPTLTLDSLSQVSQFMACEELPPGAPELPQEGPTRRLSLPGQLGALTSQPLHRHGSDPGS
Sequence of hERG potassium channels (Q12809 whole entry): as above

For `OC[C@@H](O)[C@@H](O)[C@@H](O)CO` [ribitol, (2R,3s,4S)-Pentane-1,2,3,4,5-pentol], the AUC(0-t) ([1]; read-out: AUC0-24) was 2560 µg·h/mL, the Cmax ([1]; read-out: Cmax) was 475 µg/mL and the AUC(0-inf) ([2]; single PO 0.3 g/kg, female) was 245 µg·h/mL. The Cmax ([2]; single PO 0.3 g/kg, female) was 128 µg/mL, the half-life ([2]; single PO 0.3 g/kg, female) was 1.23 h and the bioavailability ([2]; single PO 0.3 g/kg, female, read-out: % F) was 65.3%. The Tmax ([2]; single PO 0.3 g/kg, female, read-out: Tmax) was 0.67 h, the AUC(0-inf) ([2]; single PO 0.3 g/kg, male) was 210 µg·h/mL and the Cmax ([2]; single PO 0.3 g/kg, male) was 112 µg/mL. It also gave a half-life ([2]; single PO 0.3 g/kg, male) of 1.6 h, a bioavailability ([2]; single PO 0.3 g/kg, male, read-out: % F) of 55.9% and a Tmax ([2]; single PO 0.3 g/kg, male, read-out: Tmax) of 0.5 h. The AUC(0-inf) ([2]; single PO 1.0 g/kg, female) was 878 µg·h/mL, the Cmax ([2]; single PO 1.0 g/kg, female) was 368 µg/mL and the half-life ([2]; single PO 1.0 g/kg, female) was 1.43 h. It also gave a bioavailability ([2]; single PO 1.0 g/kg, female, read-out: % F) of 70.2%, a Tmax ([2]; single PO 1.0 g/kg, female, read-out: Tmax) of 0.67 h and an AUC(0-inf) ([2]; single PO 1.0 g/kg, male) of 869 µg·h/mL. The Cmax ([2]; single PO 1.0 g/kg, male) was 404 µg/mL, the half-life ([2]; single PO 1.0 g/kg, male) was 1.47 h and the bioavailability ([2]; single PO 1.0 g/kg, male, read-out: % F) was 69.4%. For the same molecule, the Tmax ([2]; single PO 1.0 g/kg, male, read-out: Tmax) was 0.5 h, the Tmax ([2]; both sexes, po, read-out: Tmax after oral administration) was less than 2 h and the bioavailability ([2]; both sexes, po, range over doses and sexes, read-out: oral bioavailability) was 55.9 to 70.2%. The IC50 [3] was greater than 2900 µM, the “matriglycan expression (Western Blot)” value [4] was “No increase in matriglycan expression” and the inhibition at 0.03 mM [5] was 3.09%. For the same molecule, the inhibition at 0.3 mM [5] was 6.43%, the inhibition at 3 mM [5] was 7.82% and the AUC(0-inf) ([6]; CD-1, mouse, plasma, IV 10 mg/kg, female) was 13.3 µg·h/mL. The Vd ([6]; CD-1, mouse, plasma, IV 10 mg/kg, female, read-out: Vss) was 4.27 L/kg, the AUC(0-inf) ([6]; CD-1, mouse, plasma, IV 10 mg/kg, male) was 7.32 µg·h/mL and the Vd ([6]; CD-1, mouse, plasma, IV 10 mg/kg, male, read-out: Vss) was 1.49 L/kg. For the same molecule, the AUC(0-inf) ([6]; CD-1, mouse, plasma, IV 30 mg/kg, female) was 20.1 µg·h/mL, the Vd ([6]; CD-1, mouse, plasma, IV 30 mg/kg, female, read-out: Vss) was 3 L/kg and the AUC(0-inf) ([6]; CD-1, mouse, plasma, IV 30 mg/kg, male) was 22.3 µg·h/mL. For the same molecule, the Vd ([6]; CD-1, mouse, plasma, IV 30 mg/kg, male, read-out: Vss) was 6.74 L/kg, the AUC(0-inf) ([6]; CD-1, mouse, plasma, IV 100 mg/kg, female) was 43.1 µg·h/mL and the Vd ([6]; CD-1, mouse, plasma, IV 100 mg/kg, female, read-out: Vss) was 2.67 L/kg. It also gave an AUC(0-inf) ([6]; CD-1, mouse, plasma, IV 100 mg/kg, male) of 49.7 µg·h/mL, a Vd ([6]; CD-1, mouse, plasma, IV 100 mg/kg, male, read-out: Vss) of 2.01 L/kg and a CLs ([6]; IV 10 mg/kg, female) of 12.6 mL/min/kg. It also gave a CLs ([6]; IV 10 mg/kg, male) of 23.4 mL/min/kg, a clearance ([6]; both sexes, CD-1, plasma, mouse, IV 100 mg/kg, range) of 33.6 to 38.9 mL/min/kg and a clearance ([6]; both sexes, CD-1, plasma, mouse, IV 10 and 30 mg/kg, range) of 12.6 to 25 mL/min/kg. For the same molecule, the Vd ([6]; both sexes, CD-1, plasma, mouse, IV, range, read-out: Volume of distribution at steady state (Vss)) was 1.49 to 6.74 L/kg, the cytotoxicity ([7]; 0.0152 to 152 μg/mL, with and without S9) was “Cytotoxicity was not observed” and the induction of micronuclei ([7]; 19 to 152 μg/mL, presence and absence of S9) was “negative; also recorded: devoid of genotoxicity potential”.
